This assay has as its target PKM2 (Homo sapiens, UniProt P14618). Briefly: PKM2 activation biochemical assay (AC50 / max. response vs fructose 1,6-bisphosphate). Conditions: for Max. Resp. (%): % maximum response in a biochemical assay as compared with Fructose 1,6-bisphosphate.
Setting [1] is: biochemical assay, read-out: PKM2 AC50.

Where two headings read alike, the source gives them in different places.

Chain of PKM2 (P14618 whole entry): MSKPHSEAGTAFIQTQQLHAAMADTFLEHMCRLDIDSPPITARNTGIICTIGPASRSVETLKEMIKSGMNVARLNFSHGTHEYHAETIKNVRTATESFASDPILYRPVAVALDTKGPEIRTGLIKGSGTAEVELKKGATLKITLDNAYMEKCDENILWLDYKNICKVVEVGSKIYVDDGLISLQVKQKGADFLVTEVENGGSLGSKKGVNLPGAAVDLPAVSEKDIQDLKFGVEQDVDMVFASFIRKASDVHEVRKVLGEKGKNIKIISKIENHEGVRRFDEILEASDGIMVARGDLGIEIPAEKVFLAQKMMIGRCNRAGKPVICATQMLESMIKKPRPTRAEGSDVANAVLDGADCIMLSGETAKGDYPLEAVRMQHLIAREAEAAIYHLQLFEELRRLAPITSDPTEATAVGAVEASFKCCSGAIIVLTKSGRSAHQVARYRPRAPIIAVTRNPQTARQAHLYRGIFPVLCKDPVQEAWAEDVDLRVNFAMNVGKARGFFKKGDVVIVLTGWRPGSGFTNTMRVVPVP

For the compound `O=C(c1cc(C(F)(F)F)n[nH]1)N(Cc1ccc(O)cc1F)CC1COC1` [Compound 15], the “Max. Resp. (%)” value was found to be 102%. Besides, the concentration at half-maximal activity (AC50) under setting [1] is 0.15 µM.
For `COC1CCCN(CCN(Cc2c(N)cccc2Cl)C(=O)c2cc(C(F)(F)F)n[nH]2)C1` (stereo not drawn) [Compound 237], in that order: 100% and 0.183 µM.
Consider `NCc1ccccc1CN(CC1CCC1)C(=O)c1cc(C(F)(F)F)n[nH]1` [Compound 145], for which the AC50 under setting [1] was 25.5 µM.
On to `O=c1cc(Cn2cnc3ccccc32)nc2scc(-c3ccccc3)n12` [PP15], for which, under setting [1], the AC50 amounted to 1.03 µM.
Consider `O=C(c1cc(C(F)(F)F)n[nH]1)N(CCC1CCOC1)Cc1ccccc1F` (stereo not drawn) [Compound 26], for which the “Max. Resp. (%)” value is 99%. Further, the concentration at half-maximal activity (AC50) under setting [1] is 0.377 µM.
With `O=C(c1cc(C(F)(F)F)n[nH]1)N(CCC1CCS(=O)(=O)CC1)Cc1ccccc1Cl` [Compound 75], the “Max. Resp. (%)” value turned out to be 102%. Besides, the AC50 under setting [1] stood at 0.188 µM.
On the same counts, the results for `O=C(c1cc(C(F)(F)F)n[nH]1)N(CCN1CCC(O)CC1)Cc1ccccc1Cl` [Compound 219] are 100% and 1.3 µM.
On to `O=C(CCSC(=S)NCc1cccnc1)c1cnc2ccccn12` [PMA33], for which the “Max. Resp. (%)” value is 101%. The half-maximal activity concentration (AC50) under setting [1] came out at 18.1 µM.
Regarding `O=C(c1cc(Br)n[nH]1)N(Cc1ccc(O)cc1F)CC1CCC1` [Compound 245], the “Max. Resp. (%)” value came to 100%. Also, the AC50 under setting [1] is 0.035 µM.
For the compound `Nc1cccc(CN(CCN2CCCCCC2)C(=O)c2cc(C(F)(F)F)n[nH]2)c1Cl` [Compound 213], the activity was half-maximal at 0.06 µM (AC50) and the “Max. Resp. (%)” value is listed as 100%.
Take `CC[C@](C)(N)C(=O)Oc1ccc(CN(CC2CCC2)C(=O)c2cc(Cl)n[nH]2)c(F)c1` [Compound 115]: the “Max. Resp. (%)” value is on record as 104%. Further, the AC50 under setting [1] was 0.098 µM.
As for `CC(c1ccccc1)N(CC1CCC1)C(=O)c1cc(C(F)(F)F)n[nH]1` (stereo not drawn) [Compound 5], the “Max. Resp. (%)” value is 106%. Further, the half-maximal activity concentration (AC50) under setting [1] was 4.65 µM.
For `O=C(c1cc(C(F)(F)F)n[nH]1)N(Cc1cn[nH]c1)Cc1cccc2[nH]cnc12` [Compound 144], under setting [1], the AC50 was 25 µM.
On to `CO[C@H]1CC[C@H](N(Cc2cc(F)cc(F)c2)C(=O)c2cc(C(F)(F)F)n[nH]2)CC1` [Compound 51], for which the “Max. Resp. (%)” value turned out to be 31%. Moreover, under setting [1], the AC50 stood at 50.4 µM.
Take `CN1CCC(CN(Cc2ccccc2F)C(=O)c2cc(C(F)(F)F)n[nH]2)CC1` [Compound 100]: the “Max. Resp. (%)” value came out at 29%. Moreover, the AC50 under setting [1] worked out at 101 µM.
On the same counts, the results for `Nc1cccc(Cl)c1CN(CCN1CCCC(O)C1)C(=O)c1cc(C(F)(F)F)n[nH]1` (stereo not drawn) [Compound 225] are 100% and 0.102 µM.
For `Nc1cccc(Cl)c1CN(CCN1CCC(F)CC1)C(=O)c1cc(C(F)(F)F)n[nH]1` [Compound 238], in that order: 100% and 0.116 µM.
Regarding `COc1ccc(C(=O)CCSC(=S)NCc2cccnc2)cc1` [PMA16], the “Max. Resp. (%)” value is 63%. Besides, the AC50 under setting [1] is 11.2 µM.
For `CC1CCCCN1CCN(Cc1ccccc1F)C(=O)c1cc(C(F)(F)F)n[nH]1` (stereo not drawn) [Compound 203], in that order: 100% and 0.55 µM.
Consider `CCN(CC)CCN(Cc1ccccc1Cl)C(=O)c1cc(Br)n[nH]1` [Compound 175], for which the activity was half-maximal at 0.305 µM (AC50) and the “Max. Resp. (%)” value came out at 100%.
On to `O=c1cc(Cn2cnc3ccccc32)nc2ccccn12` [PP4], for which the “Max. Resp. (%)” value is 161%. The AC50 under setting [1] is 0.34 µM.
As to `CCN(CC)CCN(Cc1ccccc1C(C)C)C(=O)c1cc(C(F)(F)F)n[nH]1` [Compound 184], the “Max. Resp. (%)” value was 85%. In addition, the AC50 under setting [1] was 1.95 µM.
Regarding `CCO[C@H]1CC[C@H](N(Cc2ccccc2F)C(=O)c2cc(C(F)(F)F)n[nH]2)CC1` [Compound 55], the activity was half-maximal at 0.469 µM (AC50) and the “Max. Resp. (%)” value is recorded as 101%.
As for `O=C(c1cc(C(F)(F)F)n[nH]1)N(CCC1CCS(=O)(=O)C1)Cc1cc(F)cc(F)c1` (stereo not drawn) [Compound 69], the “Max. Resp. (%)” value worked out at 74%. Moreover, the AC50 under setting [1] is 1.83 µM.
For `CC1CCCN(CCN(Cc2ccccc2F)C(=O)c2cc(C(F)(F)F)n[nH]2)C1` (stereo not drawn) [Compound 201], the “Max. Resp. (%)” value is reported as 100%. The concentration at half-maximal activity (AC50) under setting [1] turned out to be 0.215 µM.
For `CCN1CCC(N(Cc2ccccc2F)C(=O)c2cc(C(F)(F)F)n[nH]2)C1` (stereo not drawn) [Compound 152], in that order: 68% and 13.5 µM.
Turning to `CCCN(CC)CCN(Cc1c(N)cccc1Cl)C(=O)c1cc(C(F)(F)F)n[nH]1` [Compound 223], the concentration at half-maximal activity (AC50) was determined as 0.032 µM and the “Max. Resp. (%)” value turned out to be 100%.
Turning to `O=C(c1cc(C(F)(F)F)n[nH]1)N(Cc1ccc(O)cc1F)C1CCOCC1` [Compound 21], the AC50 under setting [1] was more than 10 µM.
On to `O=C(c1cc(C(F)(F)F)n[nH]1)N(CCN1CCCC1)Cc1ccccc1F` [Compound 158], for which the “Max. Resp. (%)” value came out at 100%. Under setting [1], the AC50 was 0.265 µM.
For `O=C(c1cc(Br)n[nH]1)N(CCC1CCSCC1)Cc1ccccc1F` [Compound 82], in that order: 74% and 1.37 µM.
As for `O=C(c1cc(C(F)(F)F)n[nH]1)N(CCC1CCS(=O)(=O)C1)Cc1ccccn1` (stereo not drawn) [Compound 88], the “Max. Resp. (%)” value is listed as 96%. Moreover, the AC50 under setting [1] stood at 3.6 µM.
For `O=C(c1cc(C(F)(F)F)n[nH]1)N(Cc1cccc(Cl)c1O)CC1CCC1` [Compound 141], the “Max. Resp. (%)” value is listed as 100%. In addition, the AC50 under setting [1] amounted to 6.5 µM.
On the same counts, the results for `COCCCN(Cc1ccccc1F)C(=O)c1cc(C(F)(F)F)n[nH]1` [Compound 23] are 75% and 7.54 µM.
Turning to `Cc1cccn2c(=O)cc(Cn3cnc4ccccc43)nc12` [PP13], under setting [1], the AC50 was 0.145 µM.
Turning to `CO[C@H]1CC[C@H](N(Cc2ccccc2Cl)C(=O)c2cc(C(F)(F)F)n[nH]2)CC1` [Compound 52], the “Max. Resp. (%)” value worked out at 100%. In addition, under setting [1], the AC50 came to 0.879 µM.
On the same counts, the results for `CCCCCN(Cc1ccccc1F)C(=O)c1cc(C(F)(F)F)n[nH]1` [Compound 17] are 83% and 0.138 µM.
For `O=C(c1cc(C(F)(F)F)n[nH]1)N(CCC1CCSCC1)Cc1ccccc1Cl` [Compound 73], in that order: 79% and 1.34 µM.
For `O=C(c1cc(C(F)(F)F)n[nH]1)N(Cc1ccccc1F)CC1CCS(=O)(=O)CC1` [Compound 71], in that order: 71% and 10.2 µM.
As to `CC1CCCCN1CCN(Cc1cc(N)ccc1Cl)C(=O)c1cc(C(F)(F)F)n[nH]1` (stereo not drawn) [Compound 202], the “Max. Resp. (%)” value came to 100%. For the same compound, under setting [1], the AC50 turned out to be 0.395 µM.
With `CC(c1ccccc1)N(CC1CCC1)C(=O)c1cc(N)n[nH]1` (stereo not drawn) [Compound 4], the “Max. Resp. (%)” value stood at 52%. The AC50 under setting [1] was found to be 1.48 µM.
On the same counts, the results for `O=C(c1cc(C(F)(F)F)n[nH]1)N(CCN1CCCC1)Cc1ccc(Cl)cc1Cl` [Compound 165] are 50% and 45 µM.
For `O=C(CCSC(=S)NCc1cccnc1)c1ccc(O)cc1` [PMA11], in that order: 76% and 6.23 µM.
For `O=C(c1cc(C(F)(F)F)n[nH]1)N(Cc1ccc(O)cc1F)CC1CCC1` [Compound 244], in that order: 107% and 0.062 µM.

One may read the AC50 as the concentration at which the activity in the assay is half-maximal.

Source of the values: patent US20200237766A1, “PKM2 ACTIVATORS IN COMBINATION WITH REACTIVE OXYGEN SPECIES FOR TREATMENT OF CANCER” (TOLERO PHARMACEUTICALS, INC., priority 2017, published 2020).
